Like-named read-outs stand apart in the source and are kept apart here.
Legend:
Set-up in all cases: species or system AML cell lines (8); Primary HTS, single concentration about 10 uM, Cell Titer Glo viability; log10 luminescence, per cent inhibition relative to cycloheximide control
Details in all cases: 72 h, relative to cycloheximide control, log10 luminescence, inhibitor
MOLM-13 = system: MOLM-13
ML-2 = system: ML-2
U937 = system: U937
CMK = system: CMK
CHRF288-11 = system: CHRF288-11
M07e = system: M07e
CMS = system: CMS
MV4-11 = system: MV4-11

SMILES	MOLM-13 %inh (MOLM-13) [%]	ML-2 %inh (ML-2) [%]	U937 %inh (U937) [%]	CMK %inh (CMK) [%]	CHRF288-11 %inh (CHRF288-11) [%]	M07e %inh (M07e) [%]	CMS %inh (CMS) [%]	MV4-11 %inh (MV4-11) [%]	MOLM-13 %inh (MOLM-13; MOLM-13 %inh, 10 µM) [%]	ML-2 %inh (ML-2; ML-2 %inh, 10 µM) [%]	U937 %inh (U937; U937 %inh, 10 µM) [%]	CMK %inh (CMK; CMK %inh, 10 µM) [%]	CHRF288-11 %inh (CHRF288-11; CHRF288-11 %inh, 10 µM) [%]	M07e %inh (M07e; M07e %inh, 10 µM) [%]	CMS %inh (CMS; CMS %inh, 10 µM) [%]	MV4-11 %inh (MV4-11; MV4-11 %inh, 10 µM) [%]
CN1CCC(C(=O)Nc2n[nH]c3nnc(-c4ccccc4)cc23)CC1 [SJ000573074-1, JW48822-132A0]	8.108	3.693	1.724	70.18	65.15	2.861	83.36	34.03								
C#Cc1cccc(Nc2ncnc3ccc(OCCCCNCCS(C)(=O)=O)cc23)c1 [SJ000573075-1, U14819/194/1]	9.087	4.028	-0.213	9.032	4.443	-0.9936	3.196	-0.7985								
O=C1Nc2ccc(C(=O)c3ccco3)cc2C1=Cc1cc(Cl)c(O)c(Cl)c1 [SJ000573076-1, U12068/71/3]	0.2179	3.323	-1.189	-2.763	1.037	2.097	3.176	1.256								
Cc1ccc2c(-c3ccnc(Nc4ccccc4)n3)c(-c3ccc(F)cc3)nn2n1 [SJ000573077-1, U18020/155/1]	-1.366	0.6284	0.3541	0.5232	5.564	7.072	18.56	-0.5842								
COc1ccc(-c2nn3ncccc3c2-c2ccnc(Nc3ccc4c(c3)OCCO4)n2)cc1 [SJ000573078-1, U17838/181/2]	3.964	1.307	3.638	-0.1559	4.025	5.255	4.836	-0.1391								
COc1ccc(-c2nn3ncccc3c2-c2ccnc(Nc3cccc(C(F)(F)F)c3)n2)cc1 [SJ000573079-1, U17838/180/3]	3.38	-0.6403	2.119	4.001	5.707	14.72	13.73	8.211								
FC(F)(F)c1cccc(-c2nn3ncccc3c2-c2ccnc(Nc3ccc4c(c3)OCCO4)n2)c1 [SJ000573080-1, U18020/138/1]	3.832	2.472	3.041	6.614	0.7655	-0.1766	2.426	2.308								
Fc1ccc(-c2nn3ncccc3c2-c2ccnc(Nc3ccc4c(c3)OCCO4)n2)cc1 [SJ000573081-1, U18020/136/2]	1.143	-1.741	35.33	3.915	0.4339	1.748	13.71	14.42								
NC(=O)c1cc(-c2ccncc2)cc(-c2ccccc2)c1N [SJ000573082-1, R11976/162/1]	11	-0.3373	14.29	2.399	4.55	-1.265	3.949	10.06								
CC1=C(C(=O)Nc2ccc3[nH]ncc3c2)C(c2ccc(F)cc2)N=C(c2ccc(C(F)(F)F)nc2)N1 (stereo not drawn) [SJ000573083-1, GW204431-043A1]	1.317	3.386	-1.3	6.755	5.88	0.1515	-1.221	0.5281								
NS(=O)(=O)c1ccc(-c2cc3ccncc3cc2OCc2ccccc2)cc1 [SJ000573084-1, R12606/136/38]	2.161	1.187	0.3678	-0.9682	3.946	5.451	4.611	-2.181								
CCCNc1cccc(-n2ncc3c(N/N=C/c4ccncc4)ncnc32)c1 [SJ000573085-1, U17680/65/1]	-1.209	-0.9551	-0.2236	0.2304	2.576	4.312	0.7041	-0.4908								
CN1CCC(C(=O)Nc2n[nH]c3nc(-c4ccc(O)cc4)c(Br)cc23)CC1 [SJ000573086-1, RW100084-040A1 | AN100368-077A1]									112.8	63.69	86.11	70.81	69.8	88.26	85	81.01
CN1CCC(C(=O)Nc2n[nH]c3nc(-c4ccc(O)cc4)c(Br)cc23)CC1 [SJ000573086-2, RW100084-040A1 | AN100368-077A1]									108.5	61.94	85.17	69.83	68.5	63.44	94.2	86.37
CCC(=O)Nc1ccc(C)c(-c2ccc(C(=O)NCC3CC3)cc2)c1 [SJ000573087-1, R7387/20/4]	6.641	-0.3215	1.348	1.803	3.258	5.006	2.476	5.047								
COc1ccc(-c2ccc3c(NC(=O)C4CC4)n[nH]c3n2)cc1 [SJ000573088-1, BS100048-058B1]	4.236	1.731	1.777	5.626	-3.869	-1.122	-1.884	-0.1427								
CN1CCN(Cc2ccc(-c3cc4ncnc(Nc5ccc(OCc6cccc(F)c6)c(Cl)c5)c4s3)o2)CC1 [SJ000573089-1, U17540/68/2]	4.975	-0.8811	9.435	14.44	89.11	-2.246	6.304	5.617								
COc1cc2ncnc(Nc3ccc(C)c(O)c3)c2cc1OC [SJ000573090-1, U13103/179/1]	7.874	-3.545	0.4968	1.416	0.5463	-0.2224	0.3431	0.6335								
Cc1cc(O)cc(C)c1/C=C/c1cncc(C(=O)OC(C)(C)C)c1 [SJ000573091-1, U11962/36/1]	2.429	-0.1273	-1.9	2.193	-1.68	-1.025	-1.844	1.728								
c1cc(-c2cnn3nc(N4CCOCC4)ccc23)nc(NC2CC2)n1 [SJ000573092-1, U17157/98/7]	12.47	1.098	4.896	-4.251	-0.2849	1.021	-2.802	16.51								
CS(=O)(=O)CCNCc1ccc(-c2ccc3ncnc(Nc4ccc(OCc5ccccc5)cc4)c3c2)o1 [SJ000573093-1, R1325/200/3]	25.45	1.913	-1.059	1.449	1.417	6.213	0.8735	19.4								

Reference: article PMC6522510 (Nature Communications, 2019)
